Here are results for 27 compounds from patent publication US7932261B2, “Macrocycle derivatives useful as inhibitors of β-secretase (BACE)” (Janssen Pharmaceutica NV, priority 2006, dated 2011).

Like-named read-outs stand apart in the source and are kept apart here.

Holding throughout (format): biochemical
Test [1] deals with human BACE-1 (Homo sapiens, UniProt P56817). Put plainly: in vitro BACE Assay run by CEREP (Example 15). Conditions: for inhibition at 0.3 µM / % Inhibition 0.3 μM: 0.3 μM compound; for inhibition at 1 µM: 1 μM compound. On the procedure: More specifically the assay, run at 50 μL in a 96 well plate, evaluated the effect of test compound on the activity of the human BACE-1 quantified by measuring the formation of Mca-S-E-V—N-L-NH2 from Mca-S-E-V—N-L-D-A-E-F—R—K(Dnp)-R—R—NH2, using a recombinant enzyme.
Sequence of human BACE-1 (P56817 46-501): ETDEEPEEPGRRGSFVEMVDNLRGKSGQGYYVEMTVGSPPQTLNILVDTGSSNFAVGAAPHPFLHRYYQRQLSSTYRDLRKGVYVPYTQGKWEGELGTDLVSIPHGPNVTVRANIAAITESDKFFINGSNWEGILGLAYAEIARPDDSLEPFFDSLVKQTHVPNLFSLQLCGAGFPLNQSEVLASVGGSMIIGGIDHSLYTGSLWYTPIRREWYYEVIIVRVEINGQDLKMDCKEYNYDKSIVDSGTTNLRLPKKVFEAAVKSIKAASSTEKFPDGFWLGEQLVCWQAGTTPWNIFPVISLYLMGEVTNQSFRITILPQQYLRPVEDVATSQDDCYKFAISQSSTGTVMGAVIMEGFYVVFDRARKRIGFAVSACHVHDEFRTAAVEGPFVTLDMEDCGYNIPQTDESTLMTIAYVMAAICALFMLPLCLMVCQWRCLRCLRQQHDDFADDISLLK
The test compound, reference compound or water (control) was added to a buffer containing 0.09 M sodium acetate (pH 4.5) and 0.25 μg BACE-1. Compound interference with the fluorimetric detection method due to autofluorescence was then checked by measurements at the wavelengths defined to evaluate the enzyme activity. […] For control basal measurement, the substrate was omitted from the reaction mixture. […] The standard inhibitory reference compound was OM99-2, which was tested in each experiment at several concentrations to obtain an inhibition curve from which its IC50 value was calculated.

In test [2] the target is T1, β-secretase (BACE) (Homo sapiens, UniProt P56817).
T1 construct: purchased Panvera
T1 sequence (P56817 46-501): as above
Briefly: in vitro BACE FS1 % Inhibition Assay (Example 13). Particulars: FS1 substrate, pH 5; for % Inhibition (Example 13) @ 0.3 μM / inhibition at 0.3 µM: 0.3 μM compound; for % Inhibition (Example 13) @ 1 μM / inhibition at 1 µM: 1 μM compound; for % Inhibition (Example 13) @ 3 μM / inhibition at 3 µM: 3 μM compound; for inhibition at 0.3 µM: read-out: % Inhibition (Example 13) @ 0.3 μM; for inhibition at 1 µM: read-out: % Inhibition (Example 13) @ 1 μM; for inhibition at 3 µM: read-out: % Inhibition (Example 13) @ 3 μM. The protocol: (§1) The following assay buffers were prepared and used in this assay: (1) enzyme assay buffer (0.05 M sodium acetate, pH5, 0.1% PEG8000 (w/v)), (2) substrate assay buffer (0.05 M sodium acetate, pH5), and (3) compound vehicle (30% DMSO in 50 mM HEPES, pH 7.4).
The FS1-substrate stock solution was prepared in DMSO as a 10 mg/mL solution. The FS1-substrate working solution was prepared by diluting the 10 mg/mL stock solution with substrate assay buffer to a final concentration of 300 μg/mL. The α-secretase (BACE) working solution was prepared by diluting a 0.83 mg/mL BACE stock solution with enzyme assay buffer to a final concentration of 4 μg/mL.
Test compounds were dissolved in DMSO to 10 mM.
The screening procedure for this assay was as follows: 15 μL of BACE working solution was pipetted into each well of a 96-well plate. To each well was then pipetted 2 μL of test compound at the selected concentration. Test compound and BACE were then mixed with a pipettor and incubated for 20 min at room temperature. To each well was then added 10 µL of the FS1 substrate working solution. The plates were then incubated for 1 hour at room temperature.
The procedure for the blank (negative control) was as follows. 15 μL of assay buffer was pipetted into each well to be used as a blank control. To each well was then added 2 μL of vehicle and 10 μL of FS1-substrate working solution. The plates were then incubated for 1 hour at room temperature.
The procedure for the positive control was as follows: 15 μL of BACE working solution was pipetted into each well to be used as a positive control. To each well was then pipetted 2 μL of vehicle. Vehicle and BACE were then mixed with a pipettor and incubated for 20 min at room temperature. To each well was then added 10 μL of the FS1 substrate working solution. The plates were then incubated for 1 hour at room temperature.
For test compounds, % inhibition was determined at each concentration as follows: […]

For test [3], the target named is T1, β-secretase (BACE). Put plainly: in vitro BACE Assay, Ki (Example 14). The protocol: as §1
The FS1-substrate stock solution was prepared in DMSO as a 10 mg/mL solution. The FS1-substrate working solution was prepared by diluting the 10 mg/mL stock solution with substrate assay buffer to a final concentration of 300 μg/mL. The β-secretase (BACE) working solution was prepared by diluting a 0.83 mg/mL BACE stock solution with enzyme assay buffer to a final concentration of 4 μg/mL.
Test compounds were dissolved in DMSO at 10 mM.
The procedure for this assay was as follows: 15 μL of BACE working solution was pipetted into each well of a 96-well plate. To each well was then pipetted 2 μL of test compound at the selected concentration. Test compound and BACE were then mixed with a pipettor and incubated for 20 min at room temperature. To each well was then added 10 μL of the FS1 substrate working solution.
The procedure for the positive control was as follows: 15 μL of BACE working solution was pipetted into each well to be used as a positive control. To each well was then pipetted 2 μL of vehicle. Vehicle and BACE were then mixed with a pipettor and incubated for 20 min at room temperature. To each well was then added 10 μL of the FS1 substrate working solution.
For test compounds, Ki inhibition was determined as follows: For each compound concentration and positive control, rate of cleavage of substrate (Vi, where i=compound concentration in μM) was determined as Δ Fluorescence/Δ time (min). Cleavage rates (Vi) were plotted as a function of inhibitor concentration in μM [I]. The Ki was then determined by fitting the following equation to the graph of [I] vs. Vi Y=aVmax/(50+24*(1+X/Ki)),

The mark [4] stands for this setting: recombinant enzyme, pH 4.5, 60 min at 37° C.
Setting [5] is: recombinant enzyme, pH 4.5, 60 min at 37° C., read-out: IC50.

Turning to `NC1=Nc2ccc3cc2CN1[C@H](C1CCCCC1)CCC(=O)N([C@H]1CC[C@@H](O)CC1)CCc1cccc(c1)O3` [Compound 35], the inhibition at 0.3 µM in test [1] (setting [4]) came out at 93%. Also, the IC50 in test [1] (setting [5]) turned out to be 83 nM.
`CC(C)[C@H]1CC(=O)N(C2CCCCC2)CCCc2cccc(c2)Oc2ccc3c(c2)CN1C(N)=N3` [Compound 5]: in test [2], the “% Inhibition (Example 13) @ 0.3 μM” value stood at 3%, the “% Inhibition (Example 13) @ 1 μM” value is −6% and the “% Inhibition (Example 13) @ 3 μM” value was determined as 43%.
Regarding `CC(C)[C@@H]1CCC(=O)N([C@H]2CC[C@@H](C(=O)O)CC2)CCc2cccc(c2)Oc2ccc3c(c2)CN1C(N)=N3` [Compound 23], in test [2], the inhibition at 0.3 µM is 106%, the inhibition at 1 µM is 108% and the inhibition at 3 µM was 114%. The compound also yielded a Ki in test [3] of 13 nM.
For `CC(C)[C@@H]1CCC(=O)N(C2CCCCC2)CCOc2cccc(c2)Oc2ccc3c(c2)CN1C(N)=N3` [Compound 27], in test [2], the inhibition at 0.3 µM turned out to be 106%, the inhibition at 1 µM is 117% and the inhibition at 3 µM amounted to 117%. Moreover, the affinity in test [3] corresponds to a Ki of 11 nM.
Take `CCOC(=O)C1CCC(N2CCc3cccc(c3)Oc3ccc4c(c3)CN(C(N)=N4)[C@H](C(C)C)CCC2=O)CC1` (some centres unmarked) [Compound 28]: in test [2], the “% Inhibition (Example 13) @ 0.3 μM” value is 4%, the “% Inhibition (Example 13) @ 1 μM” value was 59% and the “% Inhibition (Example 13) @ 3 μM” value is given as 110%.
Consider `NC1=Nc2cnc3cc2CN1[C@H](C1CCCCC1)CCC(=O)N(C1CCCC1)CCc1cccc(c1)O3` [Compound 37], for which the inhibition at 0.3 µM in test [1] (setting [4]) was 100%. The concentration for half-maximal inhibition (IC50) in test [1] (setting [5]) was determined as 70 nM.
`Nc1nc2ccc3cc2cc1C(C1CCCCC1)C/C=C/C(=O)N(C1CCCCC1)CCc1cccc(c1)O3` (centres unmarked) [Compound 39]: the inhibition at 1 µM in test [1] (setting [4]) is 53%. Moreover, the IC50 in test [1] (setting [5]) stood at 810 nM.
Turning to `CC(C)[C@@H]1CCC(=O)N(C2CCOCC2)CCc2cccc(c2)Oc2ccc3c(c2)CN1C(N)=N3` [Compound 20], the inhibitory constant (Ki) in test [3] (read-out: (Example 14) Ki, FS1 substrate 50 μM, Km 24 μM, pH 5) worked out at 22 nM.
For `NC1=Nc2ccc3cc2CN1CCN(C(=O)C1CCCCC1)CCCc1cccc(c1)O3` [Compound 10], in test [2], the “% Inhibition (Example 13) @ 0.3 μM” value is reported as −9%, the “% Inhibition (Example 13) @ 1 μM” value stood at 5% and the “% Inhibition (Example 13) @ 3 μM” value worked out at 7%.
With `CC(C)[C@@H]1CCC(=O)N(CCCO)CCc2cccc(c2)Oc2ccc3c(c2)CN1C(N)=N3` [Compound 25], in test [2], the inhibition at 0.3 µM came to 65%, the inhibition at 1 µM came to 99% and the inhibition at 3 µM is 111%. The compound further displayed a Ki in test [3] of 44 nM.
For `NC1=Nc2ccc3cc2CN1[C@H](C1CCCCC1)CCC(=O)N([C@H]1CC[C@@H](C(=O)O)CC1)CCc1cccc(c1)O3` [Compound 29], in test [2], the inhibition at 0.3 µM came to 120%, the inhibition at 1 µM is 116% and the inhibition at 3 µM is 125%.
For the compound `CC(C)[C@@H]1CC(=O)N(C2CCCCC2)CCCc2cccc(c2)Oc2ccc3c(c2)CN1C(N)=N3` [Compound 3], in test [2], the “% Inhibition (Example 13) @ 0.3 μM” value came out at 9%, the “% Inhibition (Example 13) @ 1 μM” value is 7% and the “% Inhibition (Example 13) @ 3 μM” value stood at 29%.
`NC1=Nc2ccc3cc2CN1CCNC(=O)CCC/C=C/c1ccccc1-3` [Compound 11]: in test [2], the inhibition at 0.3 µM is -12%, the inhibition at 1 µM was 23% and the inhibition at 3 µM is 65%.
With `CC(C)C1CCC(=O)N(C2CCC(O)CC2)CCc2cccc(c2)Oc2ccc3c(c2)CN1C(N)=N3` (centres unmarked) [Compound 26], in test [2], the “% Inhibition (Example 13) @ 0.3 μM” value is reported as −8%, the “% Inhibition (Example 13) @ 1 μM” value was 23% and the “% Inhibition (Example 13) @ 3 μM” value came out at 58%.
For the compound `CC(C)[C@@H]1CCC(=O)Nc2ccc3ccc(cc3c2)Oc2ccc3c(c2)CN1C(N)=N3` [Compound 31], in test [2], the “% Inhibition (Example 13) @ 0.3 μM” value stood at 14%, the “% Inhibition (Example 13) @ 1 μM” value was 16% and the “% Inhibition (Example 13) @ 3 μM” value was −15%.
For the compound `NC1=Nc2cnc3cc2CN1[C@H](C1CCCCC1)CCC(=O)N(C1CCCCC1)CCc1cccc(c1)O3` [Compound 32], in test [1], the 50% inhibitory concentration (IC50) came to 55 nM. Also, in test [1] (setting [4]), the inhibition at 0.3 µM came to 99%.
For the compound `NC1=Nc2ccc3cc2CN1CCCNC(=O)CCc1cccc(c1)O3` [Compound 7], the “% Inhibition (Example 13) @ 0.3 μM” value in test [2] (0.3 µM) worked out at 39%. Moreover, in test [2] (1 µM), the “% Inhibition (Example 13) @ 1 μM” value came out at 36%. The “% Inhibition (Example 13) @ 3 μM” value in test [2] (3 µM) turned out to be 37%.
Regarding `Nc1nc2ccc3cc2cc1C(C1CCCCC1)CCCC(=O)N(C1CCCCC1)CCc1cccc(c1)O3` (centres unmarked) [Compound 40], the inhibition at 1 µM in test [1] (setting [4]) amounted to 13%.
As for `NC1=Nc2cnc3cc2CN1[C@H](C1CCCCC1)CCC(=O)N(CC1CC1)CCc1cccc(c1)O3` [Compound 38], in test [1] (setting [4]), the inhibition at 0.3 µM worked out at 97%. Moreover, the IC50 in test [1] (setting [5]) was found to be 67 nM.
For `NC1=Nc2ccc3cc2CN1CCN(C1CCCCC1)C(=O)CCc1cccc(c1)O3` [Compound 15], in test [2], the “% Inhibition (Example 13) @ 0.3 μM” value is reported as −36%, the “% Inhibition (Example 13) @ 1 μM” value is recorded as −31% and the “% Inhibition (Example 13) @ 3 μM” value worked out at 10%.
For `NC1=Nc2ccc3cc2CN1CCCNC(=O)CCc1cccc(c1)O3` [Compound 9], the “% Inhibition (Example 13) @ 0.3 μM” value in test [2] (0.3 µM) is −26%. Further, in test [2] (1 µM), the “% Inhibition (Example 13) @ 1 μM” value is recorded as −21%. The “% Inhibition (Example 13) @ 3 μM” value in test [2] (3 µM) turned out to be 1%.
With `CC(C)[C@@H]1CCC(=O)N(C2CCCCC2)C2CCc3ccc(cc32)Oc2ccc3c(c2)CN1C(N)=N3` (some centres unmarked) [Compound 36], the “% Inhibition 0.3 μM” value in test [1] (setting [4]) is 74%. For the same compound, in test [1] (setting [5]), the 50% inhibitory concentration (IC50) amounted to 150 nM.
Regarding `COc1cc2c3cc1Oc1cccc(c1)CCN(C1CCCCC1)C(=O)CC[C@@H](C1CCCCC1)N(C3)C(N)=N2` [Compound 18], in test [2], the inhibition at 0.3 µM is 95%, the inhibition at 1 µM amounted to 107% and the inhibition at 3 µM stood at 115%.
In the case of `NC1=Nc2cnc3cc2CN1C(C1CCCCC1)CCC(=O)N(C1CCC(C(=O)O)CC1)CCc1cccc(c1)O3` (centres unmarked) [Compound 33], the “% Inhibition 0.3 μM” value in test [1] (setting [4]) is on record as 15%.
On to `NC1=Nc2cnc3cc2CN1[C@H](C1CCCCC1)CCC(=O)N([C@H]1CC[C@@H](O)CC1)CCc1cccc(c1)O3` [Compound 34], for which the inhibition at 0.3 µM in test [1] (setting [4]) is 86%. Moreover, the half-inhibitory concentration (IC50) in test [1] (setting [5]) stood at 210 nM.
As for `NC1=Nc2ccc3cc2CN1CCCNC(=O)Cc1cccc(c1)O3` [Compound 12], in test [2], the “% Inhibition (Example 13) @ 0.3 μM” value was −18%, the “% Inhibition (Example 13) @ 1 μM” value is recorded as −0.4% and the “% Inhibition (Example 13) @ 3 μM” value amounted to 11%.
Take `NC1=Nc2ccc3cc2CN1[C@@H](C1CCCCC1)CNC(=O)CCc1cccc(c1)O3` [Compound 16]: in test [2], the “% Inhibition (Example 13) @ 0.3 μM” value was determined as 39%, the “% Inhibition (Example 13) @ 1 μM” value is reported as 37% and the “% Inhibition (Example 13) @ 3 μM” value was found to be 61%.
